Experimental data published in patent US9527847B2, “Treatment of lupus, fibrotic conditions, and inflammatory myopathies and other disorders using PI3 kinase inhibitors” (INFINITY PHARMACEUTICALS, INC., priority 2012, dated 2016).
“Also recorded” adds a separate entry of the source.

Key:
B cell proliferation = B cell proliferation EC50 (Table 3); format: cell-based; details: in vitro
[1] = test system: Human B-cell proliferation; assay: Human B-cell proliferation; format: cell-based
[2] = test system: Human T-cell proliferation; assay: Human T-cell proliferation; format: cell-based
[3] = test system: PI3K-δ specific basophil activation; assay: Anti-fCER1 BAT (delta), basophil activation in human whole blood; format: cell-based; details: Table 5
[4] = test system: TLR9 (CPG-A induced cytokines); assay: CPG-A induced cytokine production in PBMCs; format: cell-based, human
Description: Human PBMCs were stimulated with CPG-A. CPG-A selectively activates PDCs, inducing IFN-α production via TLR9. IFN-α is a PDC cell selective readout. Primary human PBMCs from two normal human donors were used as a source of PDC cells. 200 K cells per well were used. […] Then the cells were treated with the specified concentration of CPG-A for 16 hours. RPMI-5% serum was employed.
(§1) These experiments were conducted using PBMCs.

[5] = test system: TL2/TLR6 (PAM2CSK4 induced cytokines); assay: PAM2CSK4 induced cytokine production in PBMCs; format: cell-based, human
Description: as §1

LPS induced cytokines = assay: LPS induced cytokine production in PBMCs; format: cell-based, human
Description: as §1

[6] = test system: female C.B-17 SCID mice injected with CD45RBhigh cells; assay: CD4+ Inflammatory Bowel Disease (IBD) model in SCID mice; format: in vivo, mouse
Description: In this murine model, female C.B-17 SCID mice are injected intraperitoneally (IP) with CD45RB^high cells, a subset of CD4^+ T cells obtained from normal BALB/c mice, to induce spontaneous chronic inflammation in the large intestine. Gross and histopathologic changes resulting from this treatment resemble those occurring in Crohn's disease and ulcerative colitis in humans.
On study day 0, Balb/C mice were terminated, and spleens were obtained for CD45RB^high cell isolation per the SCID IBD cell separation protocol. SCID mice were weighed and received intraperitoneal (IP) injections of the sorted cells (approx. 4×10^6 cells/ml, 100 μl/mouse injections). On study day 21, mice were weighed and randomized by body weight loss into treatment groups, and daily (QD), oral (PO) dosing was initiated. Dosing continued through study day 41, and mice were terminated on day 42.
For each animal, the entire colon (proximal and distal) was trimmed into 8 equally spaced pieces for processing and embedding. Sections were stained with hemotoxylin and eosin (H&E). For each H&E stained section, submucosal edema was quantitated by measuring the distance from the muscularis mucosa to the internal border of the outer muscle layer in a non tangential area thought to most represent the severity of this change. Mucosal thickness was also measured in a non-tangential area of the section that best represented the overall mucosal thickness. This parameter is indicative of gland elongation and mucosal hyperplasia.
Parameters that were scored using percent involvement included: (1) Colon glandular epithelial loss—this includes crypt epithelial as well as remaining gland epithelial loss; and (2) Colon Erosion—this reflects loss of surface epithelium and generally is associated with mucosal hemorrhage (reflective of the bleeding seen clinically and at necropsy).
The 4 important scored parameters (inflammation, glandular epithelial loss, erosion, hyperplasia) were ultimately summed to arrive at a sum of histopathology scores, which indicates the overall damage and would have a maximum score of 20.
Inflammatory cell infiltrates in the colonic mucosa were evaluated for approximate % of neutrophils in the total infiltrate using the criteria below.
This value was then multiplied by the inflammation score in an attempt to semiquantify relative PMN infiltration across sections and animals.

For `C[C@H](Nc1ncnc2[nH]cnc12)c1cc2cccc(Cl)c2c(=O)n1-c1ccccc1` [Compound 292], the EC50 (B cell proliferation) was less than 100 nM, the EC50 [1] was 0.5 nM and the EC50 [2] was 9.5 nM. For the same molecule, the EC50 [3] was 78 nM, the “CPG-A induced IFN-α production” value [4] was “potently inhibited; also recorded: blocked” and the “CPG-A induced IL-6 production” value [4] was “Inhibited”. The “CPG-A induced IL-8 production” value [4] was “Inhibited”, the “CPG-A induced TNF-α production” value [4] was “Inhibited” and the “PAM2CSK4 induced IL-1 production” value [5] was “Inhibited”. The “PAM2CSK4 induced IL-6 production” value [5] was “Inhibited”, the “PAM2CSK4 induced IL-8 production” value [5] was “Inhibited” and the “PAM2CSK4 induced TNF-α production” value [5] was “Inhibited”. For the same molecule, the “LPS induced IL-1 production” value (LPS induced cytokines) was “enhanced”, the “LPS induced IL-6 production” value (LPS induced cytokines) was “enhanced” and the “LPS induced IL-8 production” value (LPS induced cytokines) was “did not detectably affect”. For the same molecule, the “LPS induced TNF-α production” value (LPS induced cytokines) was “enhanced”, the Colon hyperplasia reduction ([6]; 1 mg/kg PO QD, total colon) was 32% and the Mucosal thickness reduction ([6]; 1 mg/kg PO QD, total colon) was 31%. For the same molecule, the “Colon weight reduction toward normal” value ([6]; 1 mg/kg PO QD, vs vehicle) was 34%, the Colon inflammation reduction ([6]; 3 mg/kg PO QD, distal colon) was 42% and the Gland loss reduction ([6]; 3 mg/kg PO QD, distal colon) was 52%. For the same molecule, the Hyperplasia reduction ([6]; 3 mg/kg PO QD, distal colon) was 61%, the Mucosal thickness reduction ([6]; 3 mg/kg PO QD, distal colon) was 64% and the Neutrophil score reduction ([6]; 3 mg/kg PO QD, distal colon) was 66%. For the same molecule, the PMN percent reduction ([6]; 3 mg/kg PO QD, distal colon) was 56%, the “Summed histopathology score reduction” value ([6]; 3 mg/kg PO QD, distal colon) was 52% and the Colon inflammation reduction ([6]; 3 mg/kg PO QD, proximal colon) was 19%. The Gland loss reduction ([6]; 3 mg/kg PO QD, proximal colon) was 24%, the Hyperplasia reduction ([6]; 3 mg/kg PO QD, proximal colon) was 37% and the Mucosal thickness reduction ([6]; 3 mg/kg PO QD, proximal colon) was 36%. For the same molecule, the Neutrophils score reduction ([6]; 3 mg/kg PO QD, proximal colon) was 43%, the PMN percent reduction ([6]; 3 mg/kg PO QD, proximal colon) was 39% and the “Summed histopathology score reduction” value ([6]; 3 mg/kg PO QD, proximal colon) was 28%. It also gave a Colon hyperplasia reduction ([6]; 3 mg/kg PO QD, total colon) of 49%, a Colon inflammation reduction ([6]; 3 mg/kg PO QD, total colon) of 30% and a Gland loss reduction ([6]; 3 mg/kg PO QD, total colon) of 38%. It also gave a Mucosal thickness reduction ([6]; 3 mg/kg PO QD, total colon) of 51%, a Neutrophil score reduction ([6]; 3 mg/kg PO QD, total colon) of 54% and a PMN percent reduction ([6]; 3 mg/kg PO QD, total colon) of 47%. The “Summed histopathology score reduction” value ([6]; 3 mg/kg PO QD, total colon) was 40%, the “Colon weight reduction toward normal” value ([6]; 3 mg/kg PO QD, vs vehicle) was 50% and the Colon inflammation reduction ([6]; 10 mg/kg PO QD, distal colon) was 28%. For the same molecule, the “Colon mucosal thickness reduction” value ([6]; 10 mg/kg PO QD, distal colon) was 46%, the Gland loss reduction ([6]; 10 mg/kg PO QD, distal colon) was 39% and the Hyperplasia reduction ([6]; 10 mg/kg PO QD, distal colon) was 46%. For the same molecule, the “Summed histopathology score reduction” value ([6]; 10 mg/kg PO QD, distal colon) was 38%, the Colon edema reduction ([6]; 10 mg/kg PO QD, proximal colon) was 68% and the Colon inflammation reduction ([6]; 10 mg/kg PO QD, proximal colon) was 17%. It also gave an Erosion reduction ([6]; 10 mg/kg PO QD, proximal colon) of 94%, a Gland loss reduction ([6]; 10 mg/kg PO QD, proximal colon) of 26% and a Hyperplasia reduction ([6]; 10 mg/kg PO QD, proximal colon) of 45%. It also gave a Mucosal thickness reduction ([6]; 10 mg/kg PO QD, proximal colon) of 43%, a Neutrophil score reduction ([6]; 10 mg/kg PO QD, proximal colon) of 45% and a PMN percent reduction ([6]; 10 mg/kg PO QD, proximal colon) of 37%. For the same molecule, the “Summed histopathology score reduction” value ([6]; 10 mg/kg PO QD, proximal colon) was 31%, the Absolute body weight ([6]; 10 mg/kg PO QD, significant days 27-31, 35, 39, vs vehicle) was “significantly (by ANOVA) increased” and the Colon edema reduction ([6]; 10 mg/kg PO QD, total colon) was 60%. For the same molecule, the Colon hyperplasia reduction ([6]; 10 mg/kg PO QD, total colon) was 46%, the Colon inflammation reduction ([6]; 10 mg/kg PO QD, total colon) was 24% and the Gland loss reduction ([6]; 10 mg/kg PO QD, total colon) was 33%. For the same molecule, the Mucosal thickness reduction ([6]; 10 mg/kg PO QD, total colon) was 45%, the Neutrophil score reduction ([6]; 10 mg/kg PO QD, total colon) was 44% and the PMN percent reduction ([6]; 10 mg/kg PO QD, total colon) was 37%. For the same molecule, the “Summed histopathology score reduction” value ([6]; 10 mg/kg PO QD, total colon) was 35% and the “Colon weight reduction toward normal” value ([6]; 10 mg/kg PO QD, vs vehicle) was 51%.
